Source: patent publication US20260297060A1, “COMPOUNDS FOR THE DEGRADATION OF MUTANT BRAF” (C4 THERAPEUTICS, INC., priority 2023, published 2026)

How the values were obtained:
A375-NRAS^Q61K cells = experiment: CTGlo Cell Viability Assay, A375-NRAS^Q61K (A375.11) cells, 96 hours; assay type: cell-based, human; conditions: A375.11 (A375-NRAS^Q61K) cells; for Emax: lowest % viability achieved
Procedure, shortened: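 A375 cells carrying BRAF V600E and NRAS Q61K were seeded at 250 cells/well with a 10-point half-log dose series (max 10 μM final). After 96 h at 37 °C, viability was read as ATP luminescence (CellTiter-Glo), background-subtracted and normalized to DMSO (100%). GI50 from 4-parameter fit; Emax is the lowest % viability.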

[1] = molecular target: T1, human bile salt export pump (BSEP) efflux transporter (Homo sapiens, UniProt O95342); experiment: BSEP Vesicular Transport Inhibition Assay (IC50 determination); assay type: biochemical; conditions: human BSEP (HEK293) vesicles; taurocholate 0.2 μM; 4 mM Mg-ATP; 10 concentrations, 1 replicate
T1 construct: purchased SOLVO Biotechnology Charles River Laboratories, Szeged, Hungary; host or cells: HEK293 (inside out membrane vesicles)
Description: The vesicular transport (VT) assays were performed using inside out membrane vesicles derived from HEK293 cells expressing the specified human bile salt export pump (BSEP) efflux transporter. The membrane vesicles were procured from SOLVO Biotechnology Charles River Laboratories, Szeged, Hungary.
The principle of the assay relies on measuring the accumulation of substrate into inside out vesicles containing the efflux transporter. By utilizing inside out vesicles, the ATP-dependent transport of substrate is directed into the vesicular lumen, where low permeability compounds are then essentially trapped.
For the IC50 screen inhibition assay, 10 concentrations of each compound were tested in the presence of ATP (active transport) in 1 replicate.
The solvent control (DMSO) was tested in the presence of ATP (active transport) and in the presence of AMP (background) in 8 replicates.
Vesicular transport inhibition assays were performed using the specific parameters for each transporter inhibition assay described in Table 53.
Table 54 specifies treatment groups and concentration of compounds, that were examined in the vesicular transport inhibition assay. Detailed data of IC50 screen inhibition assay are shown in Table 55 and detailed data of 1 concentration inhibition assay are shown in Table 56.
The vesicular transport inhibition assay was performed with 4 mM Mg-ATP. For the IC50 screen inhibition assay, 10 concentrations of each compound were tested in the presence of ATP in 1 replicate. For the 1 concentration inhibition assay, 1 concentration of each compound was tested in the presence of ATP (active transport) in 2 replicates. The solvent control (DMSO) was tested in the presence of 4 mM Mg-ATP (active transport) and in the presence of 4 mM AMP (background) in 8 replicates.
The BSEP membrane vesicle suspension was mixed with the ice-cold transport buffer, then the taurocholate probe substrate solution was added (Reaction mixture, 50 μL per well). The compounds were added to the reaction mixture at 1.5-times the final assay concentration. […].
Reaction mixtures and the start reagent (Mg-ATP or AMP in transport buffer) were pre-warmed separately for 15 minutes to reach the incubation temperature of 37° C. […]
The reaction was initiated by the addition of the start reagent (25 μL) to the reaction mixture (diluting the reaction mixture to the final concentration). […] After the 5-minute incubation at 37° C., the reaction was stopped by the addition of 250 μL ice-cold washing mix to each well. […]
The samples were then be transferred to a filter plate and washed with 200 μL cold washing mix5-times to remove any free compounds or taurocholate probe substrate. The amount of taurocholate probe substrate inside the filtered vesicles were determined by liquid scintillation counting. […]

T1 sequence (O95342 whole entry): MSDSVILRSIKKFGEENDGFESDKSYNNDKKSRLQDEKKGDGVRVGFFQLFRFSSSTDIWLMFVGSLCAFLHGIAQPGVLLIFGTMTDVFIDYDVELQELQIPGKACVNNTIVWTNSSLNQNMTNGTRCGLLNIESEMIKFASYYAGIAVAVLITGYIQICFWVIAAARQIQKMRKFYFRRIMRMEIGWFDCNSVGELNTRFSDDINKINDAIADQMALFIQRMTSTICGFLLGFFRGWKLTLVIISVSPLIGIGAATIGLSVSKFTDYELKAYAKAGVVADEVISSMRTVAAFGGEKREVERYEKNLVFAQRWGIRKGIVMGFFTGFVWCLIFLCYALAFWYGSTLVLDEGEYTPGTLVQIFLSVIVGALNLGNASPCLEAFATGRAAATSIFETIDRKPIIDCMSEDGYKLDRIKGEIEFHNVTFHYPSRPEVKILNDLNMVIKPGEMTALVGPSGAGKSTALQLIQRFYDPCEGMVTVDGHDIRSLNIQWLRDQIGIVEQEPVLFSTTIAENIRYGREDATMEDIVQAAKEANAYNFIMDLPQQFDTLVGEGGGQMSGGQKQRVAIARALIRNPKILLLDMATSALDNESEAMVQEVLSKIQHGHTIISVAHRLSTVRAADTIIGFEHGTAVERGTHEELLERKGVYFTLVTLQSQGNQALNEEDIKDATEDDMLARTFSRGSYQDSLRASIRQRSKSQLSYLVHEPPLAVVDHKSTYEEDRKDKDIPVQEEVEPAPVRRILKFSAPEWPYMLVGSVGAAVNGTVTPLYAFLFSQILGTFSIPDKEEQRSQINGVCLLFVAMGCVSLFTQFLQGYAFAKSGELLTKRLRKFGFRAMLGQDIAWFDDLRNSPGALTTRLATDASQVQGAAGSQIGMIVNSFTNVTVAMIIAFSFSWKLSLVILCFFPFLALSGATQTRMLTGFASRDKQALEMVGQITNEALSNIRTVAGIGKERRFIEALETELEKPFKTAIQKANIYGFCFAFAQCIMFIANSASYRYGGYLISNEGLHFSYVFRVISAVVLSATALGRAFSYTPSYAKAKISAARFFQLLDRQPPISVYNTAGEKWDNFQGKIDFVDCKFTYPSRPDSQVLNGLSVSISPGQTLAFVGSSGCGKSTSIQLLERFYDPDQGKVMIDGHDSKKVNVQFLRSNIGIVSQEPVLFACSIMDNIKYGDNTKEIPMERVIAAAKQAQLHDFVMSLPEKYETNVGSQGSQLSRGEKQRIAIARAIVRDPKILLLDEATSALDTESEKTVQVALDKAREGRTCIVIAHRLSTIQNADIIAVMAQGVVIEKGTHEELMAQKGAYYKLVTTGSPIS

GI50 (A375-NRAS^Q61K cells; Homo sapiens, 96 h)	GI50 (A375-NRAS^Q61K cells)	SMILES	Emax (A375-NRAS^Q61K cells; Homo sapiens, 96 h)	BSEP Inhibition/IC50 [1]
< 1 µM	–	CCN(C)S(=O)(=O)Nc1ccc(F)c(Oc2ccc3ncn([C@H]4COC5(CCN(C6CCC(c7cc8c(cc7F)c(N7CCC(=O)NC7=O)nn8C)CC6F)CC5)C4)c(=O)c3c2)c1C#N (single isomer, unassigned) [Compound 28]	< 50%	1.96 µM
1 to 10 µM	–	CCN(C)S(=O)(=O)Nc1ccc(F)c(Oc2ccc3ncn([C@@H]4CCC5(CCN(C6CCC(c7cc8c(cc7F)c(N7CCC(=O)NC7=O)nn8C)CC6)CC5)C4)c(=O)c3c2)c1C#N (single isomer, unassigned) [Compound 31]	< 50%	4.23 µM
< 1 µM	–	Cn1nc(N2CCC(=O)NC2=O)c2cc(F)c(C3CCC(N4CCC5(CC4)C[C@@H](n4cnc6ccc(Oc7c(F)ccc(NS(=O)(=O)C8CCCC8)c7C#N)cc6c4=O)CO5)CC3)cc21 (single isomer, unassigned) [Compound 113]	< 50%	–
< 1 µM	–	CO[C@H]1CCN(S(=O)(=O)Nc2ccc(F)c(Oc3ccc4ncn([C@H]5COC6(CCN(C7CCC(c8cc9c(cc8F)c(N8CCC(=O)NC8=O)nn9C)CC7)CC6)C5)c(=O)c4c3)c2C#N)C1 (single isomer, unassigned) [Compound 115]	< 50%	–
< 1 µM	–	Cn1nc(N2CCC(=O)NC2=O)c2cc(F)c(C3CCC(N4CCC5(CC4)C[C@@H](n4cnc6ccc(Oc7c(F)ccc(NS(=O)(=O)N8CC[C@@H](F)C8)c7C#N)cc6c4=O)CO5)CC3)cc21 (single isomer, unassigned) [Compound 121]	< 50%	–
1 to 10 µM	–	CCN(C)S(=O)(=O)Nc1ccc(F)c(Oc2ccc3ncn(C4CC5(CCN(C6CCC(c7cc8c(cc7F)c(N7CCC(=O)NC7=O)nn8C)CC6)CC5)C4)c(=O)c3c2)c1F (single isomer, unassigned) [Compound 178, 3-[7-[4-[3-(2,4-dioxohexahydropyrimidin-1-yl)-5-fluoro-1-methyl-indazol-6-yl]cyclohexyl]-7-azaspiro[3.5]nonan-2-yl]-6-[3-[[ethyl(methyl)sulfamoyl]amino]-2,6-difluoro-phenoxy]-4-oxo-quinazoline]	50 to 90%	–
< 1 µM	–	CCN(C)S(=O)(=O)Nc1ccc(F)c(Oc2ccc3ncn([C@H]4COC5(CCC(N6CC7(CN(c8cc9c(cc8F)c(N8CCC(=O)NC8=O)nn9C)C7)C6)CC5)C4)c(=O)c3c2)c1C#N (stereo partly drawn) [Compound 27, 6-[2-cyano-3-[[ethyl(methyl)sulfamoyl]amino]-6-fluoro-phenoxy]-3-[(3R)-8-[6-[3-(2,4-dioxohexahydropyrimidin-1-yl)-5-fluoro-1-methyl-indazol-6-yl]-2,6-diazaspiro[3.3]heptan-2-yl]-1-oxaspiro[4.5]decan-3-yl]-4-oxo-quinazoline]	< 50%	–
1 to 10 µM	–	CCN(C)S(=O)(=O)Nc1ccc(F)c(Oc2ccc3ncn([C@H]4COC5(CCC(N6CCN(c7ccc(NC8CCC(=O)NC8=O)cc7F)CC6)CC5)C4)c(=O)c3c2)c1C#N (stereo partly drawn) [Compound 40, 6-[2-cyano-3-[[ethyl(methyl)sulfamoyl]amino]-6-fluoro-phenoxy]-3-[(3R)-8-[4-[4-[(2,6-dioxo-3-piperidyl)amino]-2-fluoro-phenyl]piperazin-1-yl]-1-oxaspiro[4.5]decan-3-yl]-4-oxo-quinazoline]	50 to 90%	–
< 1 µM	–	CC(C)S(=O)(=O)Nc1ccc(F)c(Oc2ccc3ncn([C@H]4COC5(CCN(C6CC7(C6)CN(c6cc8c(cc6F)c(N6CCC(=O)NC6=O)nn8C)C7)CC5)C4)c(=O)c3c2)c1C#N [Compound 134, N-[2-cyano-3-[3-[(3R)-8-[2-[3-(2,4-dioxohexahydropyrimidin-1-yl)-5-fluoro-1-methyl-indazol-6-yl]-2-azaspiro[3.3]heptan-6-yl]-1-oxa-8-azaspiro[4.5]decan-3-yl]-4-oxo-quinazolin-6-yl]oxy-4-fluoro-phenyl]propane-2-sulfonamide]	50 to 90%	–
1 to 10 µM	–	CN(CCO)S(=O)(=O)Nc1ccc(F)c(Oc2ccc3ncn(C4CC5(CCN(C6CC7(C6)CN(c6cc8c(cc6F)c(N6CCC(=O)NC6=O)nn8C)C7)CC5)C4)c(=O)c3c2)c1C#N (stereo not drawn) [Compound 151, 6-[2-cyano-6-fluoro-3-[[2-hydroxyethyl(methyl)sulfamoyl]amino]phenoxy]-3-[7-[2-[3-(2,4-dioxohexahydropyrimidin-1-yl)-5-fluoro-1-methyl-indazol-6-yl]-2-azaspiro[3.3]heptan-6-yl]-7-azaspiro[3.5]nonan-2-yl]-4-oxo-quinazoline]	> 90%	–

Continued, compound first:

SMILES	GI50 (A375-NRAS^Q61K cells; Homo sapiens, 96 h)	GI50 (A375-NRAS^Q61K cells)	Emax (A375-NRAS^Q61K cells; Homo sapiens, 96 h)	BSEP Inhibition/IC50 [1]
CO[C@@H]1CCN(S(=O)(=O)Nc2ccc(F)c(Oc3ccc4ncn([C@H]5COC6(CCN(C7CCC(c8ccc(NC9CCC(=O)NC9=O)cc8F)CC7)CC6)C5)c(=O)c4c3)c2C#N)C1 (single isomer, unassigned) [Compound 109]	< 1 µM	–	< 50%	–
CCN(C)S(=O)(=O)Nc1ccc(F)c(Oc2ccc3ncc(OC4CCN(C5CCC(c6ccc(NC7CCC(=O)NC7=O)cc6F)CC5)CC4)nc3c2)c1C#N (single isomer, unassigned) [Compound 110, 7-[2-cyano-3-[[ethyl(methyl)sulfamoyl]amino]-6-fluoro-phenoxy]-2-[[1-[4-[4-[(2,6-dioxo-3-piperidyl)amino]-2-fluoro-phenyl]cyclohexyl]-4-piperidyl]oxy]quinoxaline]	> 10 µM	–	50 to 90%	–
Cn1nc(N2CCC(=O)NC2=O)c2cc(F)c(C3CCC(N4CCC5(CC4)CC(n4cnc6ccc(Oc7c(F)ccc(NS(=O)(=O)N8CC[C@@H](F)C8)c7C#N)cc6c4=O)C5)CC3)cc21 (single isomer, unassigned) [Compound 122]	< 1 µM	–	< 50%	–
CCN(C)S(=O)(=O)Nc1ccc(F)c(Oc2ccc3ncn(CC4CCN(C5CCC(c6cc7c(cc6F)c(N6CCC(=O)NC6=O)nn7C)CC5)CC4)c(=O)c3c2)c1C#N (single isomer, unassigned) [Compound 126, 6-[2-cyano-3-[[ethyl(methyl)sulfamoyl]amino]-6-fluoro-phenoxy]-3-[[1-[4-[3-(2,4-dioxohexahydropyrimidin-1-yl)-5-fluoro-1-methyl-indazol-6-yl]cyclohexyl]-4-piperidyl]methyl]-4-oxo-quinazoline]	1 to 10 µM	–	50 to 90%	–
CCN(C)S(=O)(=O)Nc1ccc(F)c(C(=O)c2ccc3ncn(C4CC5(CCN(C6CCC(c7cc8c(cc7F)c(N7CCC(=O)NC7=O)nn8C)CC6)CC5)C4)c(=O)c3c2)c1F (single isomer, unassigned) [Compound 182, 3-[7-[4-[3-(2,4-dioxohexahydropyrimidin-1-yl)-5-fluoro-1-methyl-indazol-6-yl]cyclohexyl]-7-azaspiro[3.5]nonan-2-yl]-6-[3-[[ethyl(methyl)sulfamoyl]amino]-2,6-difluoro-benzoyl]-4-oxo-quinazoline]	1 to 10 µM	–	50 to 90%	–
CCN(C)S(=O)(=O)Nc1ccc(F)c(Oc2ccc3ncn(C4CC5(CCN(C6CCC(c7cc8c(cc7F)c(N7CCC(=O)NC7=O)nn8C)CC6F)CC5)C4)c(=O)c3c2)c1F (single isomer, unassigned) [Compound 184]	–	1 to 10 µM	50 to 90%	–
CCN(C)S(=O)(=O)Nc1ccc(F)c(Oc2ccc3ncn([C@H]4COC5(CCN(C6CC7(C6)CN(c6ccc(NC8CCC(=O)NC8=O)cc6F)C7)CC5)C4)c(=O)c3c2)c1C#N (stereo partly drawn) [Compound 35, (3R)-3-[6-[2-cyano-3-[[ethyl(methyl)sulfamoyl]amino]-6-fluoro-phenoxy]-4-oxo-quinazolin-3-yl]-8-[2-[4-[(2,6-dioxo-3-piperidyl)amino]-2-fluoro-phenyl]-2-azaspiro[3.3]heptan-6-yl]-1-oxa-8-azaspiro[4.5]decane]	1 to 10 µM	–	50 to 90%	–
